Measurements from PMC11062899, “De novo development of small cyclic peptides that are orally bioavailable” (Nature Chemical Biology, 2023).
Several values for one entry are separate records, joined by “and”; a condition that tells them apart may be missing. Equal values may be shown once. Read-outs that look alike come from different tables or passages of the source.

What was measured:
[1] = Metabolic stability in rat liver microsomes (RLMs); settings: for microsomal CLint / half-life: rat, microsomes
[2] = Passive artificial membrane permeability (PAMPA)
porcine pepsin = biological target: T1, porcine pepsin (Sus scrofa, UniProt P00791); assay: Peptide stability in simulated gastric fluid (SGF); format: in vitro ADME
T1 construct: 0.32 g of porcine pepsin (Sigma-Aldrich, P7125) was dissolved under gentle agitation; purchased Sigma-Aldrich P7125
In short: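 Peptide from a 1 mM DMSO stock was added to fluid pre-warmed at 37 °C. SGF was pH 1.2 NaCl with porcine pepsin (0.32 g per 100 ml), and SIF was pH 6.8 potassium phosphate with porcine pancreatin (1 g per 100 ml). Supernatant peptide was quantified by LC–MS, with residual expressed as T1/T0.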

rat α-thrombin = biological target: T2, rat α-thrombin (Rattus norvegicus, UniProt P18292); assay: Protease inhibition, Ki for rat α-thrombin (fluorogenic substrate Z-Gly-Gly-Arg-AMC); format: biochemical; settings: rat alpha thrombin; for Slope normalized to DMSO (proteolytic substrate cleavage over time): replicates R1-R3
T2 construct: rat α-thrombin (Molecular Innovations) were used at final concentrations of 2 nM and 3 nM; purchased Molecular Innovations
In short: (§1)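 Ki derived through Cheng–Prusoff from IC50s (four-parameter logistic fit) against activity of peptide-free controls. Product fluorescence was read every 3 min over 30 min at 25 °C, substrate Z-Gly-Gly-Arg-AMC at 50 μM. Enzyme was 2 nM human or 3 nM rat α-thrombin, pH 7.4 buffer.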

human α-thrombin = human α-thrombin (Homo sapiens, UniProt P00734); assay: Protease inhibition, Ki for human α-thrombin (fluorogenic substrate Z-Gly-Gly-Arg-AMC); format: biochemical; settings: human alpha thrombin; for Slope normalized to DMSO (proteolytic substrate cleavage over time): replicates R1-R3
In short: as §1

T1 sequence (P00791 60-385): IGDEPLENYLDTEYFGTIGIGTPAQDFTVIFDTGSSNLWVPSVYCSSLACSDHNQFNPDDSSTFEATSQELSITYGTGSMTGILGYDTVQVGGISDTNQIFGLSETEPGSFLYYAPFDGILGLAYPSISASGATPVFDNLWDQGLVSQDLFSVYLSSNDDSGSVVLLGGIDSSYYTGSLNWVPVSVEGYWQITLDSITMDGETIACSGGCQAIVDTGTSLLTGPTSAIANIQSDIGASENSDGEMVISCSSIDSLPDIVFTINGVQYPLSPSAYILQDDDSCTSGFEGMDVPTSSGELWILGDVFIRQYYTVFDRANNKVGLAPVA

TIC value of compound, 0 min, R1 ([1]; rat liver microsomes, 0 min, replicate R1): 9960125
TIC value of compound, 0 min, R3 ([1]; rat liver microsomes, 0 min, replicate R3): 9584351
TIC value of compound, 5 min, R1 ([1]; rat liver microsomes, 5 min, replicate R1): 8960155
TIC value of compound, 5 min, R3 ([1]; rat liver microsomes, 5 min, replicate R3): 9591941
TIC value of compound, 15 min, R1 ([1]; rat liver microsomes, 15 min, replicate R1): 6029519
TIC value of compound, 15 min, R3 ([1]; rat liver microsomes, 15 min, replicate R3): 6211335
TIC value of compound, 30 min, R1 ([1]; rat liver microsomes, 30 min, replicate R1): 3459884
TIC value of compound, 30 min, R3 ([1]; rat liver microsomes, 30 min, replicate R3): 2699618
TIC value of compound, 60 min, R1 ([1]; rat liver microsomes, 60 min, replicate R1): 607530
TIC value of compound, 60 min, R3 ([1]; rat liver microsomes, 60 min, replicate R3): 705245
microsomal CLint ([1]; CL (ul/min/mg protein), R1, RLM CL, replicate R1, unrounded): 70.7 µL/min/mg
microsomal CLint ([1]; CL (ul/min/mg protein), R2, RLM CL, replicate R2, unrounded): 61.9 µL/min/mg
microsomal CLint ([1]; CL (ul/min/mg protein), R3, RLM CL, replicate R3, unrounded): 69.3 µL/min/mg
half-life ([1]; Half Life (min), R1, RLM metabolic stability, replicate R1): 19.6 min
half-life ([1]; Half Life (min), R2, RLM metabolic stability, replicate R2): 22.4 min
half-life ([1]; Half Life (min), R3, RLM metabolic stability, replicate R3): 20 min
half-life ([1]; Metabolic stability: Half life T1/2 (min), RLMs, mean and SD, three measurements): 21 ± 1 min
microsomal CLint ([1]; Metabolic stability: RLM CL (ul/min/mg), RLMs, mean and SD, three measurements): 67 ± 4 µL/min/mg
microsomal CLint ([1]; RLM CL, Average, average of R1-R3): 67.3 µL/min/mg
microsomal CLint ([1]; RLM CL, R1, RLM CL, replicate R1, summary block): 70.7 µL/min/mg
microsomal CLint ([1]; RLM CL, R2, RLM CL, replicate R2, summary block): 61.9 µL/min/mg
microsomal CLint ([1]; RLM CL, R3, RLM CL, replicate R3, summary block): 69.3 µL/min/mg
PAMPA permeability: % permeability ([2]; 50 μM, 12–18 h, acceptor concentration relative to equilibrium): 26 ± 9%
Papp at 50 μM ([2]; PAMPA, pH 7.4): 2.88 ×10⁻⁶ cm/s
Permeability% Average ([2]; top well sample vs theoretical equilibrium sample (TIC), average of R1-R3): 26.1%
Permeability% ([2]; top well sample vs theoretical equilibrium sample (TIC), single replicates R1-R3): 30.77% and 15.94% and 31.49%
SGF stability, Residual peptide Average (porcine pepsin; after 8 h vs 0 h (TIC), average of R1-R3): 87.04
SGF stability, Residual peptide (porcine pepsin; after 8 h vs 0 h (TIC), single replicates R1-R3): 86.50 and 93.65 and 80.97
remaining at 8 h (porcine pepsin; simulated gi fluid, 8 h, 37 °C, pH 1.2, read-out: Proteolytic stability: SGF (8 h) % remaining): 87 ± 6%
Ki (rat α-thrombin; average of R1-R3, read-out: Ki Average, rat alpha thrombin inhibition): 0.0271 µM
Slope normalized to DMSO (proteolytic substrate cleavage over time) (rat α-thrombin; peptide 1.02E-03 uM): 95.7 and 93.2 and 92.5
Slope normalized to DMSO (proteolytic substrate cleavage over time) (rat α-thrombin; peptide 1.04E+00 uM): 20.0 and 16.8 and 13.2
Slope normalized to DMSO (proteolytic substrate cleavage over time) (rat α-thrombin; peptide 1.27E-04 uM): 100.2 (2×) and 94.0
Slope normalized to DMSO (proteolytic substrate cleavage over time) (rat α-thrombin; peptide 1.30E-01 uM): 40.2 and 33.7 and 29.3
Slope normalized to DMSO (proteolytic substrate cleavage over time) (rat α-thrombin; peptide 1.59E-05 uM): 102.8 and 104.6 and 99.0
Slope normalized to DMSO (proteolytic substrate cleavage over time) (rat α-thrombin; peptide 1.63E-02 uM): 70.9 and 69.0 and 58.5
Slope normalized to DMSO (proteolytic substrate cleavage over time) (rat α-thrombin; peptide 1.67E+01 uM): 6.7 and 7.6 and -3.8
Slope normalized to DMSO (proteolytic substrate cleavage over time) (rat α-thrombin; peptide 2.03E-03 uM): 92.4 and 90.4 and 105.7
Slope normalized to DMSO (proteolytic substrate cleavage over time) (rat α-thrombin; peptide 2.08E+00 uM): 14.7 and 13.1 and 8.2
Slope normalized to DMSO (proteolytic substrate cleavage over time) (rat α-thrombin; peptide 2.54E-04 uM): 98.1 and 97.6 and 92.4
Slope normalized to DMSO (proteolytic substrate cleavage over time) (rat α-thrombin; peptide 2.60E-01 uM): 33.9 and 26.8 and 32.5
Slope normalized to DMSO (proteolytic substrate cleavage over time) (rat α-thrombin; peptide 3.18E-05 uM): 102.6 and 99.4 and 97.6
Slope normalized to DMSO (proteolytic substrate cleavage over time) (rat α-thrombin; peptide 3.26E-02 uM): 65.2 and 58.8 and 53.9
Slope normalized to DMSO (proteolytic substrate cleavage over time) (rat α-thrombin; peptide 3.33E+01 uM): 6.5 and 6.8 and 3.9
Slope normalized to DMSO (proteolytic substrate cleavage over time) (rat α-thrombin; peptide 4.07E-03 uM): 89.6 and 87.8 and 79.0
Slope normalized to DMSO (proteolytic substrate cleavage over time) (rat α-thrombin; peptide 4.17E+00 uM): 10.5 and 9.5 and 2.3
Slope normalized to DMSO (proteolytic substrate cleavage over time) (rat α-thrombin; peptide 5.09E-04 uM): 97.9 and 94.9 and 105.4
Slope normalized to DMSO (proteolytic substrate cleavage over time) (rat α-thrombin; peptide 5.21E-01 uM): 40.1 and 33.7 and 38.8
Slope normalized to DMSO (proteolytic substrate cleavage over time) (rat α-thrombin; peptide 6.36E-05 uM): 100.2 and 99.0 and 96.8
Slope normalized to DMSO (proteolytic substrate cleavage over time) (rat α-thrombin; peptide 6.51E-02 uM): 49.2 and 44.9 and 38.0
Slope normalized to DMSO (proteolytic substrate cleavage over time) (rat α-thrombin; peptide 6.67E+01 uM): 8.1 and 8.3 and 4.7
Slope normalized to DMSO (proteolytic substrate cleavage over time) (rat α-thrombin; peptide 7.95E-06 uM): 104.1 and 101.6 and 100.1
Slope normalized to DMSO (proteolytic substrate cleavage over time) (rat α-thrombin; peptide 8.14E-03 uM): 83.6 and 78.8 and 74.4
Slope normalized to DMSO (proteolytic substrate cleavage over time) (rat α-thrombin; peptide 8.33E+00 uM): 19.0 and 7.9 and 5.9
IC50 (rat α-thrombin; single replicates R1-R3, read-out: IC50, rat alpha thrombin inhibition): 0.0607 µM and 0.0432 µM and 0.043 µM
Ki (human α-thrombin; average of R1-R3, read-out: Ki Average, human alpha thrombin inhibition): 0.286 µM
Slope normalized to DMSO (proteolytic substrate cleavage over time) (human α-thrombin; peptide 1.02E-03 uM): 96.6 and 96.1 and 97.6
Slope normalized to DMSO (proteolytic substrate cleavage over time) (human α-thrombin; peptide 1.04E+00 uM): 45.5 and 28.3 and 38.4
Slope normalized to DMSO (proteolytic substrate cleavage over time) (human α-thrombin; peptide 1.27E-04 uM): 99.5 and 101.3 and 100.1
Slope normalized to DMSO (proteolytic substrate cleavage over time) (human α-thrombin; peptide 1.30E-01 uM): 62.0 and 52.8 and 61.8
Slope normalized to DMSO (proteolytic substrate cleavage over time) (human α-thrombin; peptide 1.59E-05 uM): 98.6 and 105.1 and 101.6
Slope normalized to DMSO (proteolytic substrate cleavage over time) (human α-thrombin; peptide 1.63E-02 uM): 86.9 and 79.7 and 80.1
Slope normalized to DMSO (proteolytic substrate cleavage over time) (human α-thrombin; peptide 1.67E+01 uM): 5.9 and 8.4 and 12.3
Slope normalized to DMSO (proteolytic substrate cleavage over time) (human α-thrombin; peptide 2.03E-03 uM): 95.9 and 89.0 and 96.4
Slope normalized to DMSO (proteolytic substrate cleavage over time) (human α-thrombin; peptide 2.08E+00 uM): 22.1 and 26.4 and 30.9
Slope normalized to DMSO (proteolytic substrate cleavage over time) (human α-thrombin; peptide 2.54E-04 uM): 98.5 and 99.2 and 101.9
Slope normalized to DMSO (proteolytic substrate cleavage over time) (human α-thrombin; peptide 2.60E-01 uM): 51.6 and 49.5 and 56.4
Slope normalized to DMSO (proteolytic substrate cleavage over time) (human α-thrombin; peptide 3.18E-05 uM): 101.8 and 100.2 and 98.7
Slope normalized to DMSO (proteolytic substrate cleavage over time) (human α-thrombin; peptide 3.26E-02 uM): 82.4 (2×) and 76.9
Slope normalized to DMSO (proteolytic substrate cleavage over time) (human α-thrombin; peptide 3.33E+01 uM): 6.3 and 6.8 and 11.7
Slope normalized to DMSO (proteolytic substrate cleavage over time) (human α-thrombin; peptide 4.07E-03 uM): 100.1 and 90.9 and 93.8
Slope normalized to DMSO (proteolytic substrate cleavage over time) (human α-thrombin; peptide 4.17E+00 uM): 10.9 and 18.5 and 22.2
Slope normalized to DMSO (proteolytic substrate cleavage over time) (human α-thrombin; peptide 5.09E-04 uM): 105.8 and 102.8 and 98.4
Slope normalized to DMSO (proteolytic substrate cleavage over time) (human α-thrombin; peptide 5.21E-01 uM): 63.9 and 55.1 and 63.1
Slope normalized to DMSO (proteolytic substrate cleavage over time) (human α-thrombin; peptide 6.36E-05 uM): 96.6 and 96.9 and 98.9
Slope normalized to DMSO (proteolytic substrate cleavage over time) (human α-thrombin; peptide 6.51E-02 uM): 69.9 and 61.7 and 72.5
Slope normalized to DMSO (proteolytic substrate cleavage over time) (human α-thrombin; peptide 6.67E+01 uM): 8.8 and 12.5 and 11.5
Slope normalized to DMSO (proteolytic substrate cleavage over time) (human α-thrombin; peptide 7.95E-06 uM): 102.0 and 99.6 and 99.3
Slope normalized to DMSO (proteolytic substrate cleavage over time) (human α-thrombin; peptide 8.14E-03 uM): 95.5 and 84.9 and 92.8
Slope normalized to DMSO (proteolytic substrate cleavage over time) (human α-thrombin; peptide 8.33E+00 uM): 4.1 and 13.8 and 13.6
IC50 (human α-thrombin; single replicates R1-R3, read-out: IC50, human alpha thrombin inhibition): 0.453 µM and 0.218 µM and 0.444 µM
Ki (human α-thrombin; single replicates R1-R3, read-out: Ki, human alpha thrombin inhibition): 0.349 µM and 0.168 µM and 0.342 µM
SMILES: O=C1C[C@H]2CCCN2C(=O)[C@H](Cc2ccccc2)NC(=O)[C@@H](NC(=O)c2ccc(Cl)s2)CCCSC/C=C/CSCCN1 [compound 36]
Ki (rat α-thrombin; single replicates R1-R3, read-out: Ki, rat alpha thrombin inhibition): 33.6 nM (2×) and 23.9 nM (2×) and 23.8 nM (2×)
